# Measurements published in patent US10920265B2, “Compounds and methods for detection of enzymes that remove methyl succinyl groups from epsilon-amino lysine moieties” (Enzo Life Sciences, Inc., priority 2011, dated 2021).
# *: point of attachment. AMC = Cc1cc(=O)oc2cc(N*)ccc12
# Columns and labels:
# Test in all cases: HDAC activity with fluorogenic lysyl substrates
# Format in all cases: biochemical
# Conditions in all cases: 50 μM substrate
# HDAC5 = target: T1, HDAC5 (Homo sapiens, UniProt Q9UQL6)
# T1 construct: made in house; host or cells: E. coli
# T1 sequence (Q9UQL6 656-1122): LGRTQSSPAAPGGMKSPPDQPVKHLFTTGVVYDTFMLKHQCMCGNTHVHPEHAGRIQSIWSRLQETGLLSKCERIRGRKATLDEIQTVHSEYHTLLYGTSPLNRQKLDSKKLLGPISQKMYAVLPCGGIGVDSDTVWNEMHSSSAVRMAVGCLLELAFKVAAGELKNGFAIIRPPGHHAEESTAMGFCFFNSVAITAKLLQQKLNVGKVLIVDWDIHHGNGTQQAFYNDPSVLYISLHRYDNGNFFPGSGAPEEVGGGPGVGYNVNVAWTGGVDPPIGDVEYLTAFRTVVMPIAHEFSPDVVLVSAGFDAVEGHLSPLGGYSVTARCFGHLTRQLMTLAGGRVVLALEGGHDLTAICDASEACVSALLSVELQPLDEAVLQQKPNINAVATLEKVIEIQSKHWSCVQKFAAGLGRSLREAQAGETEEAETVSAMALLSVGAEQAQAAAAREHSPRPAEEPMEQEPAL
# Experimental: (§1) The Ac-Lys(Succ.)-AMC substrate was tested for activity with recombinant preparations of human HDACs 1-11, SIRTs 1-4, 6 and 7, a complex of HDAC3 with a fragment of the activating protein NCOR1 and with HeLa nuclear extract, a rich source of active HDACs in their native multiprotein complexes.
# (§2) Enzyme and extract catalog products obtained from ENZO Life Sciences included: HDAC1 (Cat. # BML-SE456), HDAC2 (Cat. # BML-SE500), HDAC3 (Cat. # BML-SE507), HDAC3/NCOR1 Complex (Cat. # BML-SE515), HDAC6 (Cat. # BML-SE508), HDAC8 (Cat. # BML-SE145), HDAC10 (Cat. # BML-SE559), HDAC11 (Cat. # BML-SE560), SIRT1 (Cat. # BML-SE239), SIRT2 (Cat. # BML-SE251), SIRT3 (Cat. # BML-SE270), SIRT5 (Cat. # BML-SE555), HeLa Nuclear Extract (Cat. # BML-KI140), Trypsin (“Fluor de Lys Developer”, 80 mg/ml bovine trypsin in 1 mM HCl, Cat. # BML-KI105 or “Fluor de Lys Developer II”, 80 mg/ml bovine trypsin in 1 mM HCl, Cat. # BML-KI176). […] Enzymes obtained from BPS Bioscience, San Diego, Calif. included: human recombinants SIRT4 (Cat. #50015), SIRT6 (Cat. #50017), SIRT7 (Cat. #50018). HeLa whole cell extract was obtained from HeLa S3 cells (American Type Culture Collection) grown in a medium of MEM/10% fetal bovine serum (FBS) as follows: 1) 9×10^6 cells were suspended by trypsinization, followed by a phosphate buffered saline (PBS) rinse and addition of MEM/10% FBS (1.5 mL) to eliminate trypsin before transfer to a 15 mL conical tube; 2) cells were sedimented by a low speed centrifugation, gently resuspended in PBS and sedimented again and supernatant removed; 3) lysis was induced by resuspension in 0.8 mL 50 mM Tris/HCl, pH 8.0 with the non-denaturing detergent NP-40 (0.5%), placement on ice and brief vortexing every 5 min. for 30 min.; 4) 100 μl of a concentrated salt solution in the same buffer was added in order to bring the final buffer composition to 50 mM Tris/C1, pH 8.0, 137 mM NaCl, 2.7 mM KCl, 1 mM MgCl2, 0.5% NP-40; 5) particulate matter was cleared by centrifugation and the cleared lysate supernatant transferred to a 1.5 mL Eppendorf tube and stored on ice until use in activity assays.
# (§3) Assays were performed at 37° C., according to the manufacturer's instructions for the “SIRT1 Fluorometric Drug Discovery Kit” from Enzo Life Sciences (ELS) (Cat. # BML-AK555), with exceptions described as follows. Where indicated in figures and text, SIRT1 enzyme was replaced with another enzyme or extract and the “Fluor de Lys-SIRT1 Substrate” (Ac-Arg-His-Lys-Lys(Ac)-AMC; ELS Cat. # BML-KI-177) was replaced with another acetylated, succinylated or trifluoroacetylated substrate.
# HDAC2 = target: T2, HDAC2 (Homo sapiens, UniProt Q92769)
# T2 construct: purchased ENZO Life Sciences BML-SE500
# T2 sequence (Q92769 whole entry): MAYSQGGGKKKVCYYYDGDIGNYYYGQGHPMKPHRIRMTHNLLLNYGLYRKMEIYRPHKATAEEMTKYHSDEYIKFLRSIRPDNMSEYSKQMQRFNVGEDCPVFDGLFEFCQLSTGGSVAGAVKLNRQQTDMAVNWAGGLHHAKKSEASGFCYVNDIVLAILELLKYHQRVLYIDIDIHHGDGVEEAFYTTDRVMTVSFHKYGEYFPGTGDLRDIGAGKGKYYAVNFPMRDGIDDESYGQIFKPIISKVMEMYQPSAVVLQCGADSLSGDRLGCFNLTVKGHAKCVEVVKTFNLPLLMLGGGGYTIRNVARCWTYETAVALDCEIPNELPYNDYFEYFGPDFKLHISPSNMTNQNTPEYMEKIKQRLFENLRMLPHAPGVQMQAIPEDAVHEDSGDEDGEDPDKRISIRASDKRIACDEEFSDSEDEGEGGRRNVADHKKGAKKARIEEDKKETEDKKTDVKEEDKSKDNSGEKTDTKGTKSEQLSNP
# Experimental: as §1, §2, §3
# HDAC8 = target: T3, HDAC8 (Homo sapiens, UniProt Q9BY41)
# T3 construct: purchased ENZO Life Sciences BML-SE145
# T3 sequence (Q9BY41 1-377): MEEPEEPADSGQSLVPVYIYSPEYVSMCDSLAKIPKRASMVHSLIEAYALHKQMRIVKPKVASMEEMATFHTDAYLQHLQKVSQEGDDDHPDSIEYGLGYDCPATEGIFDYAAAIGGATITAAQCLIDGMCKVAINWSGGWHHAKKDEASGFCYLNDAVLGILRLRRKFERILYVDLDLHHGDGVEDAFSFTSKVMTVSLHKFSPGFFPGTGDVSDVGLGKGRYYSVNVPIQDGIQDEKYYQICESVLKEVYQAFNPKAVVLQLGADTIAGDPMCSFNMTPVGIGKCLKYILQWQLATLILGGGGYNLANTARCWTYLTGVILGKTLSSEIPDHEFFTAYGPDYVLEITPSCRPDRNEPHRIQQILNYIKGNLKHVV
# Experimental: as §1, §2, §3
# HDAC11 = target: T4, HDAC11 (Homo sapiens, UniProt Q96DB2)
# T4 construct: purchased ENZO Life Sciences BML-SE560
# T4 sequence (Q96DB2 1-347): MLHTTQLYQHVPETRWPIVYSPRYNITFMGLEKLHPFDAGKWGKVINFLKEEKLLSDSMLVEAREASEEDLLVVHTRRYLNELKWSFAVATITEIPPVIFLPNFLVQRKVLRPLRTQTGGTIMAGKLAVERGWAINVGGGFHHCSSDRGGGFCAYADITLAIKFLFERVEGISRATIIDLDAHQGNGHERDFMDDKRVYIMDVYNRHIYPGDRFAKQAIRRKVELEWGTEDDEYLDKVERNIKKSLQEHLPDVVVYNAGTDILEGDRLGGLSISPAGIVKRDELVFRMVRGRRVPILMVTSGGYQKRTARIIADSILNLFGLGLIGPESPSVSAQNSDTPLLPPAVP
# Experimental: as §1, §2, §3
# HDAC10 = target: T5, HDAC10 (Homo sapiens, UniProt Q969S8)
# T5 construct: purchased ENZO Life Sciences BML-SE559
# T5 sequence (Q969S8 1-669): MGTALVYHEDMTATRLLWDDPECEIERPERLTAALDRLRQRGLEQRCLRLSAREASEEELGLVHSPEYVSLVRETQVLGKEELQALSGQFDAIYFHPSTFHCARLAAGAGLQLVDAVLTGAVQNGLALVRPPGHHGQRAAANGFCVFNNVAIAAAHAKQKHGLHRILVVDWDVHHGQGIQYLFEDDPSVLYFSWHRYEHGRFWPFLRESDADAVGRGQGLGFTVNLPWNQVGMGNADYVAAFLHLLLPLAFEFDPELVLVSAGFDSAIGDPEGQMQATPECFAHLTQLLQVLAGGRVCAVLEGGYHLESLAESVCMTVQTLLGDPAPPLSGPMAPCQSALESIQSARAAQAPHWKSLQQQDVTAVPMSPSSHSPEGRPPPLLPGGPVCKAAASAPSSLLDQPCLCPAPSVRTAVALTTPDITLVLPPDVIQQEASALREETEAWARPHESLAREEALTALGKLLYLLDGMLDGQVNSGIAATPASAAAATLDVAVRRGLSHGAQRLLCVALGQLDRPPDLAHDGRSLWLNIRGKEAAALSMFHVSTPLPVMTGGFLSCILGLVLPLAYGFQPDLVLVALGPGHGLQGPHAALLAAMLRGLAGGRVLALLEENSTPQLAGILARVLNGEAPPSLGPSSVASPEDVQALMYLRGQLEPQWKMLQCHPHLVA
# Experimental: as §1, §2, §3
Compound,Activity (pmol/min/μg) (HDAC5),Activity (HDAC2),Activity (pmol/min/μg) (HDAC8),Activity (HDAC11),Activity (HDAC8),Activity (HDAC10),Activity (pmol/min/μg) (HDAC11),Activity (pmol/min/μg) (HDAC10)
"CC(=O)NCCCCC(NC(C)=O)C(=O)Nc1ccc2c(C)cc(=O)oc2c1 (stereo not drawn) [Ac-Lys(Ac.)-AMC, Ac-Lys(ε-acetyl)-AMC, reference compound]",Undetectable,554 pmol/min/µg,,4.15 pmol/min/µg,0.091 pmol/min/µg,1.21 pmol/min/µg,,
"Ac-Arg-His-Lys-Lys(ε-acetyl)-AMC (Ac-RHKK(Ac)-{AMC}; SMILES CC(=O)NCCCC[C@H](NC(=O)[C@H](CCCCN)NC(=O)[C@H](Cc1c[nH]cn1)NC(=O)[C@H](CCCNC(=N)N)NC(C)=O)C(=O)Nc1ccc2c(C)cc(=O)oc2c1) [Ac-RHKK(Ac)-AMC, p53 peptide fluorogenic deacetylase substrate, Cat. # BML-KI177, reference compound]",,,,,,,Ac-RHKK(Ac)-AMC/6.09 pmol/min/μg,Ac-RHKK(Ac)-AMC/2.72 pmol/min/μg
"CC(=O)N[C@@H](CCCCNC(=O)CCC(=O)O)C(=O)Nc1ccc2c(C)cc(=O)oc2c1 [Compound 1, N—(N^α-acetyl-L-Lysine(N^ε-succinyl))-AMC]",Undetectable,0.28 pmol/min/µg,Undetectable,,,,Undetectable,Undetectable

# More lines, now with the values ahead:
Activity (pmol/min/μg) (HDAC5),Activity (HDAC2),Activity (pmol/min/μg) (HDAC8),Activity (HDAC11),Activity (HDAC8),Activity (HDAC10),Activity (pmol/min/μg) (HDAC11),Activity (pmol/min/μg) (HDAC10),Compound
Undetectable,83.05 pmol/min/µg,Undetectable,,,,,,"CCCCCCCCCCCCCC(=O)NCCCC[C@H](NC(C)=O)C(=O)Nc1ccc2c(C)cc(=O)oc2c1 [Compound 4, N—(N^α-acetyl-L-Lysine(N^ε-myristoyl))-AMC]"
Undetectable,31.330 pmol/min/µg,,,0.003 pmol/min/µg,,,,"COC(=O)CCC(=O)NCCCC[C@H](NC(C)=O)C(=O)Nc1ccc2c(C)cc(=O)oc2c1 [Compound 5, N—(N^α-acetyl-L-Lysine(N^ε-methyl succinyl))-AMC]"
